Test results published in patent publication US8758723B2, “Compositions and methods for cellular imaging and therapy” (The Board of Regents of the University of Texas System, priority 2006, dated 2014).

Tested on: tumor-bearing animal models
Assay: Planar images of tumor-bearing animal models
Type: in vivo
Conditions: tumor-bearing animal models (FIGS. 5-7, 9, 10)
Description: Imaging studies were performed 12 to 15 days after inoculation. Tumor sizes of approximately 1-1.5 cm were measured. Scintigraphic images were obtained using an M-camera from Siemens Medical Systems (Hoffman Estates, Ill.). The camera was equipped with a low-energy parallel-hole collimator.
Planar scintigraphy was obtained at immediate, 0.5-4 hrs after i.v. injection of ^99mTc—N4-DG, or ^99mTc—N4 (0.3 mCi/rat; 0.1 mg mass/rabbit). To compare the radiotracer accumulation, ROIs (region of interest in counts per pixel) were determined. The ROIs count between tumor and muscle was used to calculate tumor-to-nontumor ratios.

CC(N)(Cc1ccc(OCCCN2CCCNCCNCCCNCC2)cc1)C(=O)O (stereo not shown) [Example N4-AMT]
tumor visualization on planar images: visualized clearly
